The target of series [1] is Phosphodiesterase 4 (Rattus norvegicus, UniProt P14270+P14646+P14644+P54748). The series can be described thus: Inhibition of rolipram binding to PDE4 of rat brain.
For series [2], the target named is T1, Phosphodiesterase 4 (Homo sapiens, UniProt P27815+Q08499+Q07343+Q08493). Nature of the series: Relative inhibition of phosphodiesterase 4 and rolipram binding. It is filed as protein assay.
The target in series [3] is T1, Phosphodiesterase 4. The series can be described thus: Inhibition of Phosphodiesterase 4 from human U937 cells. It is filed as cell-based. To be noted: u-937.
The nature of series [4]: Cmax in guinea pig after 3mg/kg oral dose. It is filed as ADME, organism-based, Cavia porcellus. Also noted: dose 3 mg/kg, route oral. Particulars: in vivo.
The nature of series [5]: AUC in guinea pig after 3mg/kg oral dose. It is filed as ADME, organism-based, Cavia porcellus, Plasma.
Series [6] is described as follows: Cmax in rat after 3mg/kg oral dose. It is filed as ADME, organism-based. Details: dose 3 mg/kg, route oral. To be noted: in vivo.
Series [7] is described as follows: AUC in rat after 3mg/kg oral dose. It is filed as ADME, organism-based. To be noted: plasma.
Series [8] deals with Phosphodiesterase 7 (Homo sapiens) (UniProt Q13946+Q9NP56). Nature of the series: Inhibition of Phosphodiesterase 7 from human T-lymphocyte cell line. To be noted: concentration not given here.
Chain of Phosphodiesterase 7 (Homo sapiens) (Q13946 whole entry, looked up): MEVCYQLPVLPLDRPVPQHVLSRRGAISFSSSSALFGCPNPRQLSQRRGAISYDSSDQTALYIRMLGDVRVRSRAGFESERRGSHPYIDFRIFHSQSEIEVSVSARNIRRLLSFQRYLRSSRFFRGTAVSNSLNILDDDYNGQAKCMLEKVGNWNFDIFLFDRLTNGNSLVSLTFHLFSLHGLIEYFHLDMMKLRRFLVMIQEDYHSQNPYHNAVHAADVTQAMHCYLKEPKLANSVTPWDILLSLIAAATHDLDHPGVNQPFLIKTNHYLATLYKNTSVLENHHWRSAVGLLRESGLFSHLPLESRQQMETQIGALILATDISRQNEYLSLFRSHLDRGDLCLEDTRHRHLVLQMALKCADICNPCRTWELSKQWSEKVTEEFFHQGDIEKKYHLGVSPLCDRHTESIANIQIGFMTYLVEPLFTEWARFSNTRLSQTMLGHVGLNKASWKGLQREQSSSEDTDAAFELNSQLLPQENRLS
Chain of Phosphodiesterase 7 (Homo sapiens) (Q9NP56 whole entry, looked up): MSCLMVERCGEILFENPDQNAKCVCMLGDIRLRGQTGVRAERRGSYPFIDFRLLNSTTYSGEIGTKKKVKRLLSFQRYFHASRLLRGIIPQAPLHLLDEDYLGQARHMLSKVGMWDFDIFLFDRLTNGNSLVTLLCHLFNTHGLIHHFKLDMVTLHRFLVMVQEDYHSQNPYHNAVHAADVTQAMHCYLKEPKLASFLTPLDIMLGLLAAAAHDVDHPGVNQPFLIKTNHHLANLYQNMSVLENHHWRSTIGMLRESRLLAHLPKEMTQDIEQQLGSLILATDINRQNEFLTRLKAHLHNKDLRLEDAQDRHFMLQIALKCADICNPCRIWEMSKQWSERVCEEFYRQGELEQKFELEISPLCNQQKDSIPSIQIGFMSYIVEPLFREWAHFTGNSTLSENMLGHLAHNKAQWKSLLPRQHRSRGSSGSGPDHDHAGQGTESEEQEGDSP
Series [9] has as its target Phosphodiesterase 3 (Homo sapiens) (UniProt Q14432+Q13370). Nature of the series: Inhibition of Phosphodiesterase 3 from human platelets. To be noted: concentration not given here.
Series [10] deals with Phosphodiesterase 1 (Homo sapiens) (UniProt P54750+Q01064+Q14123). Nature of the series: Inhibition of recombinant Phosphodiesterase 1. Particulars: concentration not given here. It is filed as protein assay.
The target in series [11] is cGMP-specific 3',5'-cyclic phosphodiesterase (Homo sapiens) (UniProt O76074). The series can be described thus: Inhibition of Phosphodiesterase 5 from human platelets. Particulars: concentration not given here.
The target in series [12] is cGMP-dependent 3',5'-cyclic phosphodiesterase (Homo sapiens) (UniProt O00408). The series can be described thus: Inhibition of Phosphodiesterase 2. Particulars: concentration not given here.
Chain of cGMP-dependent 3',5'-cyclic phosphodiesterase (Homo sapiens) (O00408 whole entry): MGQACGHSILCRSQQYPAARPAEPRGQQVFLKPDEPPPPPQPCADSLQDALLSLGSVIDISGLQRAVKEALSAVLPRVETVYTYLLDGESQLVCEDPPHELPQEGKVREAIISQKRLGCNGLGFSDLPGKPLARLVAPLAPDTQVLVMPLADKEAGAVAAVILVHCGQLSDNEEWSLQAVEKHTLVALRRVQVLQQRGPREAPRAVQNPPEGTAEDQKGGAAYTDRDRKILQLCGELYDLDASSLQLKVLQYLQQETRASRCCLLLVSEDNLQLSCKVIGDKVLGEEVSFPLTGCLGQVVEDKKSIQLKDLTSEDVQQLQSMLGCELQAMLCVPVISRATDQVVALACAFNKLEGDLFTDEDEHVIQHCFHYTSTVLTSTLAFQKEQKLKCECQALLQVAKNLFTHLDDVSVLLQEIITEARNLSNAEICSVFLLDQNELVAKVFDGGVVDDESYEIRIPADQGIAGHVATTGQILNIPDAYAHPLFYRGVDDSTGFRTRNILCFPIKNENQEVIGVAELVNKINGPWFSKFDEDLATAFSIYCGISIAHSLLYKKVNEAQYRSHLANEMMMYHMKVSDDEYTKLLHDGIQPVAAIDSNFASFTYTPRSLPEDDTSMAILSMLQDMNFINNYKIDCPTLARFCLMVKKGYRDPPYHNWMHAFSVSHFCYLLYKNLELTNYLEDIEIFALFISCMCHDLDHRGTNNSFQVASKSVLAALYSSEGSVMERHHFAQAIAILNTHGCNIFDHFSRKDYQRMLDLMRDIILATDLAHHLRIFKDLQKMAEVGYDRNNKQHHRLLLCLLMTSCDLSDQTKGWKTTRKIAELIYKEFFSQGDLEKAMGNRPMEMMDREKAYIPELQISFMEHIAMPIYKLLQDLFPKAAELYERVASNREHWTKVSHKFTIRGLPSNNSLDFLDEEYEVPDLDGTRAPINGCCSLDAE
Series [13] addresses T1, Phosphodiesterase 4. The series can be described thus: Inhibition of Phosphodiesterase 4. It is filed as protein assay.

Here are results for eight compounds from ChEMBL document CHEMBL1135148, “Synthesis and profile of SCH351591, a novel PDE4 inhibitor” (Bioorg Med Chem Lett, 2002).

By IC50 is commonly meant the concentration at which inhibition is half-maximal. Read a high IC50 as lower potency. The term Cmax denotes the maximum level reached in the sampled fluid or tissue. Broadly, the AUC is concentration integrated over time. What is called inhibition is the change of the read-out against control, counted positive when it falls.

Molecules are shown by their SMILES.

Turning to `COc1ccc(C(=O)Nc2ccncc2Cl)c2ccc(C(F)(F)F)nc12`, the IC50 worked out at 0.11 µM on Phosphodiesterase 4 [1] and 1.12 µM against Phosphodiesterase 4 [3]. Moreover, on Phosphodiesterase 4 [2], the Ratio was 10.
As for `COc1ccc(C(=O)Nc2c(Cl)c[n+]([O-])cc2Cl)c2ccc(C(F)(F)F)nc12` [SCH-351591], the Cmax in series [4] was determined as 1390 ng/mL; in series [6] it was 3060 ng/mL. Besides, the AUC worked out at 15757 ng·h/mL in series [5] (in vivo); 15800 ng·h/mL in series [5] (plasma, read-out: AUC); 50500 ng·h/mL in series [7]. Moreover, the inhibition in series [8] was found to be 10%; in series [9], 31%; in series [10] it was 15%; in series [11], 5%; in series [12] it was 0%. For the same compound, the IC50 on Phosphodiesterase 4 [1] came out at 0.15 µM; against Phosphodiesterase 4 [3] it was 0.06 µM; on Phosphodiesterase 4 [13], 0.06 µM. Further, the Ratio at Phosphodiesterase 4 [2] came out at 0.4.
Consider `COc1ccc(C(=O)Nc2c(C)c[n+]([O-])cc2C)c2ccc(C(F)(F)F)nc12`, for which the IC50 came to 0.38 µM at Phosphodiesterase 4 [1] and 0.15 µM on Phosphodiesterase 4 [3]. Besides, the Ratio at Phosphodiesterase 4 [2] is 0.39.
`COc1ccc(C(=O)Nc2c(F)cncc2F)c2ccc(C(F)(F)F)nc12`: the figures for the IC50 at Phosphodiesterase 4 [1] and against Phosphodiesterase 4 [3] were 0.038 µM and 0.035 µM, respectively. In addition, at Phosphodiesterase 4 [2], the Ratio amounted to 0.94.
In turn, `COc1ccc(C(=O)Nc2c(Cl)cncc2Cl)c2ccc(C(F)(F)F)nc12` showed a Cmax in series [4] of 380 ng/mL. Further, the AUC in series [5] (in vivo) worked out at 1174 ng·h/mL; in series [5] (plasma, read-out: AUC), 1170 ng·h/mL; in [7], 6860 ng·h/mL. At Phosphodiesterase 4 [1], this compound came in with an IC50 of 0.077 µM. The Ratio at Phosphodiesterase 4 [2] amounted to 0.66.
Consider `COc1ccc(C(=O)Nc2c(C)cncc2C)c2ccc(C(F)(F)F)nc12`, for which the IC50 came to 0.058 µM on Phosphodiesterase 4 [1] and 0.12 µM on Phosphodiesterase 4 [3]. In addition, on Phosphodiesterase 4 [2], the Ratio is 2.1.
For the compound `COc1ccc(C(=O)Nc2c(F)c[n+]([O-])cc2F)c2ccc(C(F)(F)F)nc12`, the IC50 on Phosphodiesterase 4 [1] was determined as 0.06 µM; against Phosphodiesterase 4 [3], 0.07 µM. In addition, on Phosphodiesterase 4 [2], the Ratio was 1.17.
As for `COc1ccc(C(=O)Nc2cc[n+]([O-])cc2Cl)c2ccc(C(F)(F)F)nc12`, the IC50 came to 0.37 µM on Phosphodiesterase 4 [1] and 0.24 µM against Phosphodiesterase 4 [3]. Further, the Ratio on Phosphodiesterase 4 [2] is 0.65.
